{"source": "patent US9951183B2", "about": "“Amphiphilic blockcopolymers comprising reduction sensitive biodegradable polyesteramides” (DSM IP Assets B.V., priority 2014, dated 2018)", "key": {"HeLa cells [1]": {"tested_on": "HeLa cells", "assay": "Cell viability MTT assay, HeLa", "assay_type": "cell-based", "conditions": "DOX 12.5 μg/mL", "method": "HeLa and MCF-7 cells are plated in a 96-well plate (1×10^4 cells/well) using DMEM medium supplemented with 10% fetal bovine serum, 1% L-glutamine, antibiotics penicillin (100 IU/mL), and streptomycin (100 μg/mL) and incubation for 24 h. […] Then 3-(4,5-dimethylthiazol-2-yl)-2,5-diphenyl tetrazoliumbromide (MTT) solution in PBS (10 μL, 5 mg/mL) are added and incubated for another 4 h. The medium is aspirated, the MTT-formazan generated by live cells is dissolved in 150 μL of DMSO, and the absorbance at a wavelength of 490 nm of each well is measured using a microplate reader. The relative cell viability (%) is determined by comparing the absorbance at 490 nm with control wells containing only cell culture medium. Data are presented as average±SD (n=4)."}, "HeLa cells [2]": {"tested_on": "HeLa cells", "assay": "Cellular uptake and intracellular release of DOX (CLSM)", "assay_type": "cell-based", "conditions": "DOX 12.5 μg/mL", "method": "HeLa cells are plated on microscope slides in a 24-well plate (5×10^4 cells/well) under 5% CO2 atmosphere at 37° C. using Dulbecco's modified Eagle's medium (DMEM) supplemented with 10% fetal bovine serum, 1% L-glutamine, antibiotics penicillin (100 IU/mL), and streptomycin (100 μg/mL). […] After incubation at 37° C. and a humidified 5% CO2-containing atmosphere for 0.5, 2 or 4 h, the culture media are removed and the cells on microscope plates are washed three times with PBS. The cells are then fixed with 4% formaldehyde for 15 min and washed with PBS 3 times. The cell nuclei are stained with 4′,6-diamidino-2-phenylindole (DAPI, blue) for 15 min and washed with PBS 3 times."}}, "data": [{"molecule": "COc1cccc2c1C(=O)c1c(O)c3c(c(O)c1C2=O)C[C@@](O)(C(=O)CO)C[C@@H]3O[C@H]1C[C@H](N)[C@H](O)[C@H](C)O1", "note": "[free DOX, doxorubicin]", "values": [{"measurement": "cell viability", "setting": "HeLa cells [1]; 24 h", "result": 31.8, "unit": "%"}, {"measurement": "cell viability", "setting": "HeLa cells [1]; 48 h", "result": 19.1, "unit": "%"}, {"measurement": "intracellular distribution of DOX", "setting": "HeLa cells [2]", "result": "mainly accumulated in cell nucleus"}]}]}
